Assay results reported in ChEMBL document CHEMBL1137163, “Structure-activity relationships of potent and selective factor Xa inhibitors: benzimidazole derivatives with the side chain oriented to the prime site of factor Xa” (Bioorg Med Chem Lett, 2004).
pIC50: −log10 of the molar value.

What was measured:
Coagulation factor X = Coagulation factor X (Homo sapiens, UniProt P00742); test: Inhibitory concentration against human Coagulation factor X
Prothrombin = Prothrombin (Homo sapiens, UniProt P00734); test: Inhibitory concentration against Coagulation factor II
Mus musculus = species on record: Mus musculus; test: Concentration required to produce 50% inhibition of tissue factor-induced platelet aggregation in disseminated intravascular coagulation (DIC) mouse model; assay type: functional

Chain of Coagulation factor X (P00742 41-179 limits assumed): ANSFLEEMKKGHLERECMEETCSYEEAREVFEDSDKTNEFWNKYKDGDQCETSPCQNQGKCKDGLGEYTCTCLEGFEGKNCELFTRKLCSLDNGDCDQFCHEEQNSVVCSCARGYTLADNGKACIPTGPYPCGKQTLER
Chain of Coagulation factor X (P00742 235-488 limits assumed): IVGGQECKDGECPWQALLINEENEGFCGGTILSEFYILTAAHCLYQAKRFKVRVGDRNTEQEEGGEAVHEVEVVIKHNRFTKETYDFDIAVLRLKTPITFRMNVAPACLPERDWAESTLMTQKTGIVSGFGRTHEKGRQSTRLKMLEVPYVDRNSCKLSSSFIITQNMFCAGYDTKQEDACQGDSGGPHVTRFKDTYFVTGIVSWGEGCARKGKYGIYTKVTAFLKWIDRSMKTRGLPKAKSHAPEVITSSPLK

Compound	pIC50 (Coagulation factor X)	pIC50 (Prothrombin)	ED50 (Mus musculus)
CC(=N)N1CCC(Oc2ccc(OCc3nc4cc(C(=N)N)ccc4n3CC(=O)N3CCCCC3)cc2)CC1	5.52	< 5.00	–
CC(=N)N1CCC(Oc2ccc(OCc3nc4cc(C(=N)N)ccc4n3CC(=O)NCc3ccccc3)cc2)CC1	7.00	< 5.00	–
CC(=N)N1CCC(Oc2ccc(OCc3nc4cc(C(=N)N)ccc4n3CC(=O)Nc3ccccc3)cc2)CC1	7.00	< 5.00	–
CC(=N)N1CCC(Oc2ccc(OCc3nc4cc(C(=N)N)ccc4n3CC(=O)NCc3ccc(Cl)c(Cl)c3)cc2)CC1	7.52	< 5.00	–
CC(=N)N1CCC(Oc2ccc(OCc3nc4cc(C(=N)N)ccc4n3CC(=O)NCCCc3ccccc3)cc2)CC1	6.70	< 5.00	–
CC(=N)N1CCC(Oc2ccc(OCc3nc4cc(C(=N)N)ccc4n3CC(=O)NCC3CCCCC3)cc2)CC1	6.52	< 5.00	–
CC(=N)N1CCC(Oc2ccc(N(Cc3nc4cc(C(=N)N)ccc4n3CC(=O)NC3CCCCC3)C(=O)c3ccc(C(=O)O)cc3)cc2)C1 (centres undefined)	7.00	< 5.00	–
CC(=N)N1CCC(Oc2ccc(OCc3nc4cc(C(=N)N)ccc4n3CC(=O)NC3CCCCC3)cc2)CC1	7.40	< 5.00	–
CC(=N)N1CCC(Oc2ccc(N(Cc3nc4cc(C(=N)N)ccc4n3CC(=O)NC(C)(C)c3ccccc3)C(=O)c3ccc(C(=O)O)cc3)cc2)CC1	6.70	< 5.00	–
CC(=N)N1CCC(Oc2ccc(OCc3nc4cc(C(=N)N)ccc4n3CC(=O)NC(C)c3ccccc3)cc2)CC1 (centres undefined)	7.52	< 5.00	–
CC(=N)N1CCC(Oc2ccc(OCc3nc4cc(C(=N)N)ccc4n3CC(=O)Nc3ccc(Cl)c(Cl)c3)cc2)CC1	7.22	< 5.00	–
N=C(N)c1ccc(Oc2ccc(N(Cc3nc4cc(C(=N)N)ccc4n3CC(=O)NC3CCCCC3)C(=O)c3ccc(C(=O)O)cc3)cc2)cc1	5.70	< 5.00	–
N=C(N)c1ccc2c(c1)nc(CN(C(=O)c1ccc(C(=O)O)cc1)c1ccc(OC3CCNC3)cc1)n2CC(=O)NC1CCCCC1 (centres undefined)	6.52	< 5.00	–
CCn1c(COc2ccc(OC3CCN(C(C)=N)CC3)cc2)nc2cc(C(=N)N)ccc21	6.40	< 5.00	–
N=C(N)c1ccc2c(c1)nc(CN(C(=O)c1ccc(C(=O)O)cc1)c1ccc(OC3CCN(C(=N)NCc4ccccc4)CC3)cc1)n2CC(=O)NC1CCCCC1	–	< 5.00	–
CC(=N)N1CC[C@H](Oc2ccc(CCc3cc4cc(C(=N)N)ccc4o3)cc2)C1	6.22	< 5.00	–
CC(=N)N1CCC(Oc2ccc(N(Cc3nc4cc(C(=N)N)ccc4n3CC(=O)NCc3ccc(Cl)c(Cl)c3)C(=O)c3ccc(C(=O)O)cc3)cc2)CC1.Cl.Cl	8.22	< 5.00	0.7 mg/kg
CC(=N)N1CCC(Oc2ccc(N(Cc3nc4cc(C(=N)N)ccc4n3CC(=O)Nc3ccc(Cl)c(Cl)c3)C(=O)c3ccc(C(=O)O)cc3)cc2)CC1.Cl.Cl	6.70	< 5.00	0.7 mg/kg
CC(=N)N1CC[C@H](Oc2ccc([C@H](Cc3ccc4ccc(C(=N)N)cc4c3)C(=O)O)cc2)C1.Cl [DX-9065A HYDROCHLORIDE HYDRATE]	–	–	0.5 mg/kg
CC(=N)N1CCC(Oc2ccc(N(Cc3nc4cc(C(=N)N)ccc4n3CC(=O)NC3CCCCC3)C(=O)c3ccc(C(=O)O)cc3)cc2)CC1.Cl.Cl	–	–	0.2 mg/kg
